Measurements reported in patent US10772891B2, “Pyrazolo pyridine derivatives as NADPH oxidase inhibitors” (GENKYOTEX SUISSE SA, priority 2008, dated 2020).

The compounds below were run on NOX (assay: Chemiluminescence (Luminol) ROS measurement in cells). Settings: % of the activity in control cells, 'usually'.
Assay type: cell-based, human
Procedure: ROS was measured using the chemiluminescent probe luminol. Cells were cultured and plated as for Amplex Red except that the Amplex Red agent was replaced by 10 μg/mL luminol (Sigma 09235). Light emission was recorded continuously at 37° C. for 60 minutes using the luminescence function of the FluoStar Optima fluorescent plate reader. The mean of the four blank values was subtracted from each corrected value for each time point. NOX activities were expressed as % of the activity in control cells. Residual activity of DPI-treated cells was usually <10%.

| Structure (SMILES) | Residual activity of DPI-treated cells [%] |
| --- | --- |
| c1ccc([I+]c2ccccc2)cc1 [DPI, Diphenyl-iodonium] | < 10 |

Each compound was assayed on NOX (assay: H2DCF-DA fluorescence in TGF-β stimulated HUVEC). Settings: % of the activity in control cells, 'usually'.
Assay type: cell-based, human
Procedure: HUVEC are cultured in endothelial basal medium supplemented with hydrocortisone (1 μg/mL, CalBioChem), bovine brain extract (12 μg/mL), gentamicin (50 μg/mL, CalBioChem), amphotericin B (50 ng/mL, CalBioChem EGF (10 ng/mL, and 10% FCS until the fourth passage. When the fifth passage was started, cells were cultured with a lower concentration of FCS (2%) in the absence of EGF, if not indicated otherwise. All experiments were done with cells of the fifth passage. The cells were incubated with OxLDL (oxidized low-density lipoprotein) or its buffer as control for 24 h, before detection of 02 formation.
HUVEC were plated on coverslips and made quiescent overnight in 0.5% BSA before stimulation with TGF-β. Cells were loaded for 10 minutes with 5 μM CM-H2DCFDA in phenol-red-free medium in the dark and then treated with TGF-β (R&D Systems) in the presence or absence of compounds according to the invention. Cells were then visualized by immunofluorescence microscopy after fixation and staining of the nuclei with DAPI or examined live using confocal microscopy. DCF fluorescence was visualized at an excitation wavelength of 488 nm and emission at 515 to 540 nm. […] For calculation, the absorbance at […] was normalized to absorbance at […] for each individual well. […] NOX activities were expressed as % of the activity in control cells. […]

| Structure (SMILES) | Residual activity of DPI-treated cells [%] |
| --- | --- |
| c1ccc([I+]c2ccccc2)cc1 [DPI, Diphenyl-iodonium] | < 10 |

These compounds were tested against T1, NOX (Homo sapiens, UniProt P04839) (assay: Amplex Red measurement of extracellular hydrogen peroxide (NOX activity) in DMSO-differentiated HL60 cells). Settings: not given.
T1 construct: NOX activity as measured by Amplex Red using DMSO-differentiated HL60 cells; endogenous in cells; host or cells: HL-60 cells differentiated to the neutrophil phenotype with Me2SO
T1 sequence (P04839 2-570 limits assumed): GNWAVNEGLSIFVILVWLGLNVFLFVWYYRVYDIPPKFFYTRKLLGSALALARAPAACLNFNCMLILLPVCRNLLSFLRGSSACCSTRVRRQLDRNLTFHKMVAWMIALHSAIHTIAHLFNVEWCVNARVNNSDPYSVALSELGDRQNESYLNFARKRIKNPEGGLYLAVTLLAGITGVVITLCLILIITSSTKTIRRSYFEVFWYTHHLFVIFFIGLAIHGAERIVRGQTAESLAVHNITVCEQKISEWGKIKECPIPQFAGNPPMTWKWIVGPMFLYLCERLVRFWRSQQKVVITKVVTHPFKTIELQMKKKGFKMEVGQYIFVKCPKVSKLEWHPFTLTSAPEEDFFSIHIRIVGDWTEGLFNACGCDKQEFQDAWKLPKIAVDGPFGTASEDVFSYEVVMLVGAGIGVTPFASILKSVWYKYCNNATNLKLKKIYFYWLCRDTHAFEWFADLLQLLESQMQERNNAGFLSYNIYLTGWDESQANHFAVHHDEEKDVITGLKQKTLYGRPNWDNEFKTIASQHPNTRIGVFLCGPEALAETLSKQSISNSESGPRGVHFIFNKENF
T1 sequence (P13498 1-195 partner): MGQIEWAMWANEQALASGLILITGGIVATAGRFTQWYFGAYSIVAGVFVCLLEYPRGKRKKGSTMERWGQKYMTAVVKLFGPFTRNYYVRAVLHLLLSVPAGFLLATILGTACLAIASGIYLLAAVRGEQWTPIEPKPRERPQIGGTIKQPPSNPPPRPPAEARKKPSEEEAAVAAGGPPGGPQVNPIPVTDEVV
Assay type: cell-based
Procedure: Human acute myeloid leukemia cell line HL-60 was cultured in RPMI 1640 (Invitrogen) supplemented with 10% heat-inactivated calf serum, 2 mM glutamine, 100 U/mL penicillin (Sigma), and 100 μg streptomycin (Sigma) at 37° C. under a humidified atmosphere of 5% CO2. HL60 differentiation to the neutrophil phenotype was triggered by adding Me2SO (final concentration 1.25% v/v for 6 days) to the culture medium.
Extracellular hydrogen peroxide was measured using Amplex UltraRed (Molecular Probes). Cells were trypsinized (1× Trypsin-EDTA), collected by centrifugation, and resuspended in HBSS supplemented with 1% glucose. Cells were seeded into black 96-well plates at a density of 50′000 cells in 200 μl testing buffer (HBSS 1% glucose containing 0.005 U/mL horseradish peroxidase (Roche) and 50 μM Amplex Red in the presence or absence of compounds according to the invention. As a control, DPI was included at a final concentration of 10 μM The plates were placed in the fluorescent Optima Fluorescent plate reader and kept at 37° C. during 20 min. Fluorescence was measured for 15 min with excitation and emission wavelengths of 544 nm and 590 nm respectively. NOX activities were expressed as % of the activity in control cells. Residual activity of DPI-treated cells was usually <10%. […]
The Table 2 below summarizes the IC50 of NOX activity as measured by Amplex Red using DMSO-differentiated HL60 cells as described above: […]

| Structure (SMILES) | IC50 [µM] |
| --- | --- |
| Cc1c2c(=O)n(-c3cccc(Cl)c3)[nH]c2cc(=O)n1CCCC(=O)N1CCN(C)CC1 [Compound 28, 2-(3-chlorophenyl)-4-methyl-5-[4-(4-methylpiperazin-1-yl)-4-oxobutyl]-1H-pyrazolo[4,3-c]pyridine-3,6(2H,5H)-dione] | < 5 |
| Cc1c2c(=O)n(-c3ccccc3Cl)[nH]c2cc(=O)n1Cc1ccccc1N1CCOCC1 [Compound 1, 2-(2-chlorophenyl)-4-methyl-5-(2-morpholin-4-ylbenzyl)-1H-pyrazolo[4,3-c]pyridine-3,6(2H,5H)-dione] | < 5 |
| Cc1c2c(=O)n(-c3ccccc3Cl)[nH]c2cc(=O)n1NC(=O)COc1ccc(F)cc1 [Compound 13, N-[2-(2-chlorophenyl)-4-methyl-3,6-dioxo-1,2,3,6-tetra hydro-5H-pyrazolo[4,3-c]pyridin-5-yl]-2-(4-fluorophenoxy)acetamide] | < 5 |
| Cc1c2c(=O)n(-c3ccccc3Cl)[nH]c2cc(=O)n1C [Compound 8, 2-(2-chlorophenyl)-4,5-dimethyl-1H-pyrazolo[4,3-c]pyridine-3,6(2H,5H)-dione] | < 5 |
| Cc1c2c(=O)n(-c3ccccc3Cl)[nH]c2cc(=O)n1CC(c1ccccc1)N1CCOCC1 (centres unmarked) [Compound 3, 2-(2-chlorophenyl)-4-methyl-5-(2-morpholin-4-yl-2-phenylethyl)-1H-pyrazolo[4,3-c]pyridine-3,6(2H,5H)-dione] | < 5 |
| Cc1c2c(=O)n(-c3ccccc3Cl)[nH]c2cc(=O)n1Cc1ccc(CN2CCN(C)CC2)cc1 [Compound 2, 2-(2-chlorophenyl)-4-methyl-5-{4-[(4-methylpiperazin-1-yl)methyl]benzyl}-1H-pyrazolo[4,3-c]pyridine-3,6(2H,5H)-dione] | < 5 |
| Cc1c2c(=O)n(-c3nc(-c4ccccc4)cs3)[nH]c2cc(=O)n1Cc1cccc(Oc2ccccc2)c1 [Compound 10, 4-methyl-5-(3-phenoxybenzyl)-2-(4-phenyl-1,3-thiazol-2-yl)-1H-pyrazolo[4,3-c]pyridine-3,6(2H,5H)-dione] | < 5 |
| COc1cccc(CCn2c(C)c3c(=O)n(-c4ccccc4Cl)[nH]c3cc2=O)c1 [Compound 4, 2-(2-chlorophenyl)-5-[2-(3-methoxyphenyl)ethyl]-4-methyl-1H-pyrazolo[4,3-c]pyridine-3,6(2H,5H)-dione] | < 5 |
| Cc1c2c(=O)n(-c3ccccc3F)[nH]c2cc(=O)n1CC(=O)NCc1ccccn1 [Compound 30, 2-[2-(2-fluorophenyl)-4-methyl-3,6-dioxo-1,2,3,6-tetra hydro-5H-pyrazolo[4,3-c]pyridin-5-yl]-N-(pyridin-2-ylmethyl)acetamide] | < 5 |
| Cc1c2c(=O)n(-c3ccccc3F)[nH]c2cc(=O)n1Cc1cccc(N2CCOCC2)n1 [Compound 20, 2-(2-fluorophenyl)-4-methyl-5-[(6-morpholin-4-ylpyridin-2-yl)methyl]-1H-pyrazolo[4,3-c]pyridine-3,6(2H,5H)-dione] | < 5 |
| CCOCCCn1c(C)c2c(=O)n(-c3nc(-c4ccccc4)cs3)[nH]c2cc1=O [Compound 7, 5-(3-ethoxypropyl)-4-methyl-2-(4-phenyl-1,3-thiazol-2-yl)-1H-pyrazolo[4,3-c]pyridine-3,6(2H,5H)-dione] | < 5 |

These compounds were tested on NOX (assay: Nitroblue tetrazolium (NBT) superoxide test in cells). Settings: DPI 10 μM, % of the activity in control cells, 'usually'.
Assay type: cell-based, human
Procedure: Intracellular and extracellular superoxide was measured by a colorimetric technique using a quantitative nitroblue tetrazolium (NBT) test. SOD-inhibitable conversion of NBT to formazan, a fine blue precipitate, in the presence of superoxide anion was measured using Fluostar Optima spectrometer (BMG labtech). Following incubation with appropriate stimuli, cells were trypsinized (1× Trypsin-EDTA), collected by centrifugation, and washed with PBS to remove medium. 5×10^5 cells were plated on 48-well plates and incubated in Hank's balanced salt solution containing 0.5 mg/mL NBT with or without 800 U/mL SOD in the presence or absence of compounds according to the invention. As a control, DPI was included at a final concentration of 10 μM. After 2.5 h, cells were fixed and washed with methanol to remove non reduced NBT. The reduced formazan was then dissolved in 230 μl of 2M potassium hydroxide and in 280 μl of dimethylsulfoxide. The absorption was measured at 630 nm. For calculation, the absorbance at 630 nm was normalized for each individual well. The mean of the four blank values was subtracted from each corrected value for each time point. NOX activities were expressed as % of the activity in control cells. Residual activity of DPI-treated cells was usually <10%.

| Structure (SMILES) | Residual activity of DPI-treated cells [%] |
| --- | --- |
| c1ccc([I+]c2ccccc2)cc1 [DPI, Diphenyl-iodonium] | < 10 |
